Patent US20190086391A1, “METHOD AND SYSTEM FOR CONTINUOUS BIOSENSING” (Yissum Research Development Company of the Hebrew …, priority 2016, published 2019)
“And” between values parts separate entries of the source, which are not always exact repeats. Equal values may be shown once. “Also recorded” adds a separate entry of the source.

What was measured:
HepG2/C3A cells [1] = test: TUNEL apoptosis assay; format: cell-based, human; settings: 24 hours exposure to 200 μM
Description: PMDS microwell inserts were removed from the bioreactor following 24 hours exposure to rotenone or troglitazone. Cholestasis was evaluated using 5(6)-carboxy-2′, 7′-dichlorofluorescein diacetate (CDFDA) cell permeable dye which is metabolized to fluorescent CDF and secreted to active bile canaliculi by active multidrug resistance-associated protein 2 (MRP2). Briefly, cells were incubated with 2 μg/mL of CDFDA and 1 μg/mL of Hoechst 33342 for 20 min, and washed with PBS. Number of bile canaliculi foci was normalized for number of Hoechst-labeled nuclei. Apoptosis was evaluated using DeadEnd™ fluorometric TUNEL system (Promega, USA) according to manufacturer directions. Briefly, cells were fixed in 4% paraformaldehyde, permeabilized and exposed to fluorescein-12-dUTP and terminal deoxynucleotidyl transferase (TdT), dyeing apoptotic nuclei green. The reaction was subsequently stopped and the cells counterstained for Hoechst. A percent apoptotic nucleus was calculated by dividing the number of TUNEL to Hoechst positive nuclei.

HepG2/C3A cells [2] = test: Quantification of ATP/ADP ratio; format: cell-based, human; settings: 50 μM
Description: Intracellular ATP and ADP quantification was carried out using Abeam ADP/ATP Assay Kit (#ab65313), according to manufacturer's instructions. […] Cells were incubated in nucleotide releasing buffer for 5 min at room temperature, with gentle shaking. Background bioluminescence reading of the reaction mix was taken for calibration, followed by 2 min incubation of 50 μl sample solution in each reaction well, and a bioluminescence reading to measure cellular ATP content. ADP converting enzyme was then added, as instructed, following incubation of 2 min at room temperature to measure total ADP+ATP.

isolated mitochondria = test: Oxygen consumption rate of ADP-stimulated isolated mitochondria; format: biochemical; settings: 50 μM injected after ADP; no enzymatic activation
Description: Mitochondria were isolated using a Mitochondria Isolation Kit (Abcam, UK) per manufacturer instructions. Briefly, 10^7 cells were collected and ruptured using 30 strokes in a pre-cooled dounce homogenizer. Homogenate was centrifuged twice at 1,000×g for 10 minutes at 4° C. to remove debris, and finally at 12,000×g for 15 minutes at 4° C. Pellet containing the isolated mitochondria was resuspended in a protease inhibitor cocktail. Protein concentration was determined using Bradford. 20 μg of mitochondrial protein per well was plated in gelatin-coated SeaHorse XFp cell culture miniplate and centrifuged at 3,000×g for 20 minutes at 4° C. in mitochondrial assay solution (MAS) as previously described (29). Oxygen consumption rate (OCR) was measured by the XFp Extracellular Flux Analyzer (Seahorse Biosciences, USA). Mitochondrial activity was profiled by successive injections of ADP (Sigma-Aldrich, Israel) and 50 μM of troglitazone, rotenone or DMSO control.

HepG2/C3A organoids = test: LIVE/DEAD cell viability staining; format: cell-based; settings: 50 μM, 24 hours
Description: Unless otherwise noted, cell viability was determined utilizing LIVE/DEAD Cytotoxicity kit (Molecular Probes, Eugene, Oreg.) according to manufacturer's instructions. In brief, cultures were incubated with 2 μM Calcein AM and 3 μM ethidium homodimer-1 for 25 minutes. Hydrolysis by functional intracellular esterases causes live cells to fluoresce green, while the punctured membranes of dead cells permit ethidium homodimer-1 to bind DNA and fluoresce red. Cellular viability was calculated by live to dead ratio and normalized to negative control.

Structure (SMILES)	increase in apoptosis (TUNEL) (HepG2/C3A cells [1])	decrease in ATP/ADP ratio (HepG2/C3A cells [2]) [%]	loss of OCR / inhibition of mitochondrial respiration in isolated mitochondria (isolated mitochondria)	cell death (Live/Dead) (HepG2/C3A organoids)	cell viability compared with untreated control (HepG2/C3A organoids)
C=C(C)[C@H]1Cc2c(ccc3c2O[C@@H]2COc4cc(OC)c(OC)cc4[C@@H]2C3=O)O1 [rotenone]	14 fold and 14±2 fold	47	immediate; also recorded: directly inhibit mitochondrial respiration in minutes		
Cc1c(C)c2c(c(C)c1O)CCC(C)(COc1ccc(CC3SC(=O)NC3=O)cc1)O2 (centres unmarked) [troglitazone]				Less than 5%	not significantly different from untreated control
